According to patent publication US8344181B2, “N-2 adamantanyl-2-phenoxy-acetamide derivatives as 11-beta hydroxysteroid dehydrogenase inhibitors” (Janssen Pharmaceutica N.V., priority 2004, dated 2013):

Key:
11β-HSD2 = target: T1, 11β-HSD2 (Homo sapiens, UniProt P80365); assay: Cellular assay of 11β-HSD2 activity in HepG2 cells; format: cell-based; conditions: 4 hour pre-incubation, 10^-5M to 10^-10M, read-out: HSD2 cellular HepG2 Score
T1 construct: endogenous in cells; host or cells: HepG2 (ATCC HB-8065)
T1 sequence (P80365 1-405): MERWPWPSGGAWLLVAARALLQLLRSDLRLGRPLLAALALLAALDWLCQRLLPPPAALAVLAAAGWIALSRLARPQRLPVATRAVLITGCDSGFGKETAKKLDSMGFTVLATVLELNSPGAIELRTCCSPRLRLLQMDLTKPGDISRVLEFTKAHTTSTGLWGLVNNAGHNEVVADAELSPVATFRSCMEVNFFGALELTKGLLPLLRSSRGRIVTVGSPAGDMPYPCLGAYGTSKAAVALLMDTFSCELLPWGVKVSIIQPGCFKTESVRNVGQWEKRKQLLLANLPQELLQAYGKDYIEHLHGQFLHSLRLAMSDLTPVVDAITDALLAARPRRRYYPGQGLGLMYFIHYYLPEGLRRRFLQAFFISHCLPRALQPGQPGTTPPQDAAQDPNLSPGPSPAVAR
Description: The effects on 11β-HSD2 activity was studied in HepG2 and LCC-PK1-cells HepG2-cells (ATCC HB-8065) were seeded in 12 well plates at a density of 100,000 cells/ml and grown at 37° C. in a humidified 5% CO2 atmosphere in MEM-Rega-3 medium supplemented with 10% heat inactivated foetal calf serum, 2 mM L-glutamine and sodium bicarbonate). Medium was refreshed twice a week.
Following a 4 hour pre-incubation with test compound, 0.5 μCi ^3H-cortisol or corticosterone, was added to the cultures. One hour later, the medium was extracted on Extrelut^3-columns with 15 ml diethyl ether and the extract was analysed by HPLC as described above.
(§1) As for the enzymatic assays, the compounds to be tested were taken from a stock solution and tested at a final concentration ranging from 10^−5M to 10^−10M. From the thus obtained dose response curves, the pIC50 value was calculated and scored as follows; Score 1=pIC50 value<5, Score 2=pIC50 value in the range of 5 to 6, Score 3=pIC50 value>6. (in this table NT stands for Not Tested).

11β-HSD1 = target: T2, 11β-HSD1 (Mus musculus, UniProt P50172); assay: Cellular assay of 11β-HSD1 activity in differentiated 3T3-L1 cells; format: cell-based; conditions: 4 hour pre-incubation, 10^-5M to 10^-10M, read-out: HSD1 cellular 3T3-L1 Score
T2 construct: endogenous in cells; host or cells: 3T3-L1 (ATCC-CL-173), differentiated into adipocytes
T2 sequence (P50172 whole entry): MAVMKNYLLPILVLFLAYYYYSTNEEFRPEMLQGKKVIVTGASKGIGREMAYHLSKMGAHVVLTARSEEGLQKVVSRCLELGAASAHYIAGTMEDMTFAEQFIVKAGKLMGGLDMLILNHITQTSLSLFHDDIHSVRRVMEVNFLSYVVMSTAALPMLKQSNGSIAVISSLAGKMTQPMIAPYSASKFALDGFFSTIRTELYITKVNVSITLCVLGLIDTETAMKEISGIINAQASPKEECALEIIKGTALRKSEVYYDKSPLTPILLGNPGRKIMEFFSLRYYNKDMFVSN
Description: The effects on 11β-HSD1 activity was measured in differentiated 3T3-L1 cells and rat hepatocytes.
Mouse fibroblast 3T3-L1 cells (ATCC-CL-173) were seeded at a density of 16500 cells/ml in 12 well plates and grown for 7 days in DMEM medium (supplemented with 10% heat inactivated foetal calf serum, 2 mM glutamine and 25 mg gentamycin) at 37° C. in a humidified 5% CO2 atmosphere. Medium was refreshed twice a week. Fibroblasts were differentiated into adipocytes at 37° C. in a 5% CO2 humidified atmosphere in growth medium containing 2 μg/ml insulin, 55 μg/ml IBMX and 39.2 μg/ml dexamethasone.
Primary hepatocytes from male rats were seeded on normal Falcon 12 well plates at a density of 250000 cells/well and incubated for 16 hours at 37° C. in a 5% CO2 humidified atmosphere in DMEM-HAM's F12 medium containing 5% Nu-serum, 100 U/ml penicillin, 100 μg/ml streptomycin, 0.25 μg/ml amphotericin B, 50 μg/ml gentamycin sulfate, 5 μg/ml insulin and 392 ng/ml dexamethasone. Following a 4 hour pre-incubation with test compound, 0.5 μCi ^3H-cortisone or dehydrocorticosterone, was added to the 3T3-L1 cultures. One hour later, the medium was extracted on Extrelut^3-columns with 15 ml diethyl ether and the extract was analysed by HPLC as described above. The effects of JNJ-compounds on rat hepatocyte HSD1 activity was measured after an incubation period of 90 minutes with 0.5 μCi^3H-dehydrocorticosterone. Corticosterone formation was analysed by HPLC.
as §1

Row | Structure (SMILES) | IC50 (11β-HSD2) | IC50 (11β-HSD1)
1 | CC(C)(Oc1cccc(C(F)(F)F)c1)C(=O)N[C@H]1[C@@H]2CC3C[C@H]1C[C@](N)(C3)C2 [Compound 81] | > 10 µM | < 1 µM
2 | Cc1cc(Cl)ccc1OC(C)(C)C(=O)N[C@H]1[C@@H]2CC3C[C@H]1C[C@](NC(=O)CC(C)C)(C3)C2 [Compound 64] | 1 to 10 µM | < 1 µM
3 | CC(C)(Oc1ccc(Cl)cc1)C(=O)N[C@H]1[C@@H]2CC3C[C@H]1C[C@](NC(=O)CCl)(C3)C2 [Compound 94] | 1 to 10 µM | < 1 µM
4 | O=C(N[C@H]1[C@@H]2CC3C[C@H]1C[C@](O)(C3)C2)c1cc2ccccc2o1 [Compound 23] | > 10 µM | < 1 µM
5 | Cc1cccc(OC(C)(C)C(=O)N[C@H]2[C@@H]3CC4C[C@H]2C[C@](O)(C4)C3)c1 [Compound 10] | 1 to 10 µM | < 1 µM
6 | Cc1cc(Cl)ccc1OC(C)(C)C(=O)N[C@H]1[C@@H]2CC3C[C@H]1C[C@](NS(C)(=O)=O)(C3)C2 [Compound 33] | 1 to 10 µM | < 1 µM
7 | Cc1ccccc1NC(C)(C)C(=O)N[C@H]1[C@@H]2CC3C[C@H]1C[C@](F)(C3)C2 [Compound 35] | 1 to 10 µM | < 1 µM
8 | Cc1cc(Cl)ccc1OC(C)(C)C(=O)N[C@H]1[C@@H]2CC3C[C@H]1C[C@](O)(C3)C2 [Compound 1] | < 1 µM | < 1 µM
9 | CC(=O)Nc1cccc(OC(C)(C)C(=O)N[C@H]2[C@@H]3CC4C[C@H]2C[C@](O)(C4)C3)c1 [Compound 19] | < 1 µM | < 1 µM
10 | CC(=O)N[C@@]12CC3C[C@H](C1)[C@H](NC(=O)C(C)(C)Nc1ccc(C)cc1)[C@@H](C3)C2 [Compound 37] | > 10 µM | < 1 µM
11 | CN(C)CCCO[C@@]12CC3C[C@H](C1)[C@H](NC(=O)C(C)(C)Oc1cccc(Cl)c1)[C@@H](C3)C2 [Compound 44] | 1 to 10 µM | < 1 µM
12 | CC(C)(Oc1ccccc1Cl)C(=O)N[C@H]1[C@@H]2CC3C[C@H]1C[C@](N)(C3)C2 [Compound 99] |  | < 1 µM
13 | Cc1cccc(NC(C)(C)C(=O)N[C@H]2[C@@H]3CC4C[C@H]2C[C@](F)(C4)C3)c1 [Compound 57] | > 10 µM | < 1 µM
14 | CCS(=O)(=O)N[C@@]12CC3C[C@H](C1)[C@H](NC(=O)C(C)(C)Oc1cccc(C(F)(F)F)c1)[C@@H](C3)C2 [Compound 87] | 1 to 10 µM | < 1 µM
15 | CN1CC(C(=O)N[C@@H]2[C@@H]3CC4C[C@H]2C[C@@](O)(C4)C3)Oc2ccccc21 (stereo partly drawn) [Compound 6] | > 10 µM | < 1 µM
16 | Cc1ccc(OC(C)(C)C(=O)N[C@H]2[C@@H]3CC4C[C@H]2C[C@](OC(=O)CN2CCOCC2)(C4)C3)cc1 [Compound 41] | 1 to 10 µM | < 1 µM
17 | CC(=O)N[C@@]12CC3C[C@H](C1)[C@H](NC(=O)C(C)(C)Nc1cccc(C(F)(F)F)c1)[C@@H](C3)C2 [Compound 65] | > 10 µM | < 1 µM
18 | Cc1ccc(OC(C)(C)C(=O)NC2C3CC4CC2CC(c2ccccc2)(C4)C3)cc1 (stereo not drawn) [Compound 49] | > 10 µM | 1 to 10 µM
19 | Cc1cc(Cl)ccc1OC(C)(C)C(=O)N[C@H]1[C@@H]2CC3C[C@H]1C[C@](N)(C3)C2 [Compound 32] | > 10 µM | < 1 µM
20 | Cc1ccccc1OC(C)(C)C(=O)N[C@H]1[C@@H]2CC3C[C@H]1C[C@](O)(C3)C2 [Compound 12] | < 1 µM | < 1 µM
21 | CC(C)(Nc1ccccc1)C(=O)N[C@H]1[C@@H]2CC3C[C@H]1C[C@](F)(C3)C2 [Compound 68] | > 10 µM | < 1 µM
22 | CC(C)(Oc1cccc(Cl)c1)C(=O)N[C@H]1[C@@H]2CC3C[C@H]1C[C@](N)(C3)C2 [Compound 85] | > 10 µM | < 1 µM
23 | CC(C)(Oc1ccc(Cl)cc1)C(=O)N[C@H]1[C@@H]2CC3C[C@H]1C[C@](N)(C3)C2 [Compound 95] | > 10 µM | < 1 µM

Row | Structure (SMILES) | IC50 (11β-HSD2) | IC50 (11β-HSD1)
24 | CC(C)(Oc1ccc(Cl)cc1)C(=O)N[C@H]1[C@@H]2CC3C[C@H]1C[C@](O)(C3)C2 [Compound 67] | 1 to 10 µM | < 1 µM
25 | CC(C)(Oc1cccc(Cl)c1)C(=O)N[C@H]1[C@@H]2CC3C[C@H]1C[C@](O)(C3)C2 [Compound 43] | < 1 µM | < 1 µM
26 | Cc1ccc(NC(C)(C)C(=O)N[C@H]2[C@@H]3CC4C[C@H]2C[C@](O)(C4)C3)cc1 [Compound 27] | > 10 µM | < 1 µM
27 | COC(=O)c1cccc(NC(C)(C)C(=O)N[C@H]2[C@@H]3CC4C[C@H]2C[C@](O)(C4)C3)c1 [Compound 75] | > 10 µM | < 1 µM
28 | CC(C)(Nc1ccccc1)C(=O)N[C@H]1[C@@H]2CC3C[C@H]1C[C@](O)(C3)C2 [Compound 54] | > 10 µM | < 1 µM
29 | CC(C)(Oc1cccc(Br)c1)C(=O)N[C@H]1[C@@H]2CC3C[C@H]1C[C@](N)(C3)C2 [Compound 93] | > 10 µM | < 1 µM
30 | CC(C)(Oc1ccccc1Br)C(=O)N[C@H]1[C@@H]2CC3C[C@H]1C[C@](O)(C3)C2 [Compound 15] | < 1 µM | < 1 µM
31 | CC(C)(Nc1cccc(C(F)(F)F)c1)C(=O)N[C@H]1[C@@H]2CC3C[C@H]1C[C@](NC(=O)CCl)(C3)C2 [Compound 80] | 1 to 10 µM | < 1 µM
32 | COC(=O)c1ccc(NC(C)(C)C(=O)NC2[C@@H]3CC4C[C@H]2C[C@](F)(C4)C3)cc1 (stereo partly drawn) [Compound 96] |  | 1 to 10 µM
33 | CC(C)(Oc1cccc(C(F)(F)F)c1Cl)C(=O)N[C@H]1[C@@H]2CC3C[C@H]1C[C@](N)(C3)C2 [Compound 100] |  | < 1 µM
34 | CC(C)(Nc1cccc(C(=O)O)c1)C(=O)N[C@H]1[C@@H]2CC3C[C@H]1C[C@](O)(C3)C2 [Compound 86] |  | 1 to 10 µM
35 | COC(=O)c1cccc(NC(C)(C)C(=O)N[C@H]2[C@@H]3CC4C[C@H]2C[C@](F)(C4)C3)c1 [Compound 78] |  | < 1 µM
36 | CC(C)(C(=O)N[C@H]1[C@@H]2CC3C[C@H]1C[C@](O)(C3)C2)[S+]([O-])c1ccc(Cl)cc1 (stereo partly drawn) [Compound 5] |  | < 1 µM
37 | Cc1cc(Cl)ccc1OC(C)(C)C(=O)N[C@H]1[C@@H]2CC3C[C@H]1C[C@](NC(=O)NC(C)(C)C)(C3)C2 [Compound 71] |  | 1 to 10 µM
38 | CC(C)(Nc1cccc(C(=O)O)c1)C(=O)N[C@H]1[C@@H]2CC3C[C@H]1C[C@](F)(C3)C2 [Compound 82] |  | 1 to 10 µM
39 | CC(C)(Oc1ccccc1C(F)(F)F)C(=O)N[C@H]1[C@@H]2CC3C[C@H]1C[C@](N)(C3)C2 [Compound 102] |  | < 1 µM
40 | CC(=O)N[C@@]12CC3C[C@H](C1)C(NC(=O)C(C)(C)Nc1cccc(C(=O)O)c1)[C@@H](C3)C2 (stereo partly drawn) [Compound 97] |  | > 10 µM
41 | COc1cc(F)ccc1OC(C)(C)C(=O)N[C@H]1[C@@H]2CC3C[C@H]1C[C@](N)(C3)C2 [Compound 105] |  | < 1 µM
42 | COC(=O)c1ccc(NC(C)(C)C(=O)N[C@H]2[C@@H]3CC4C[C@H]2C[C@](O)(C4)C3)cc1 [Compound 79] |  | < 1 µM
43 | CC(C)(Oc1cc(C(F)(F)F)ccc1Cl)C(=O)N[C@H]1[C@@H]2CC3C[C@H]1C[C@](N)(C3)C2 [Compound 101] |  | < 1 µM
44 | Cc1ccccc1OC(C)(C)C(=O)N[C@H]1[C@@H]2CC3C[C@H]1C[C@](N)(C3)C2 [Compound 103] |  | < 1 µM
45 | CC(C)(Oc1cccc(Br)c1)C(=O)N[C@H]1[C@@H]2CC3C[C@H]1C[C@](NC(=O)OCCCl)(C3)C2 [Compound 98] |  | < 1 µM
